Patent US9815850B2, “Compounds, compositions and methods” (Denali Therapeutics Inc., priority 2016, dated 2017)
pIC50: −log10 of the molar value.

Molecular target: GST-hRIPK1 (8-327) (Homo sapiens (Human), UniProt Q13546)
Experiment: Fluorescent Polarization Binding (FP Binding) assay
Details: 10 nM GST-hRIPK1 (8-327), 5 nM fluorescent labeled ligand; read-out: FP IC50
Method: Fluorescent Polarization Binding (FP Binding) assay (Berger S. B. et al. […] Maki J. L. et al. […] Test Compounds were serially diluted in DMSO at 100 fold final concentrations in the assay (1% DMSO final). […] For negative control the enzyme addition was replaced by assay buffer only. After addition of 5 μL of fluorescent labeled ligand at twice the final concentrations in assay buffer, the plate was incubated at RT for 30 min.

Sequence of GST-hRIPK1 (8-327) (Q13546 8-327): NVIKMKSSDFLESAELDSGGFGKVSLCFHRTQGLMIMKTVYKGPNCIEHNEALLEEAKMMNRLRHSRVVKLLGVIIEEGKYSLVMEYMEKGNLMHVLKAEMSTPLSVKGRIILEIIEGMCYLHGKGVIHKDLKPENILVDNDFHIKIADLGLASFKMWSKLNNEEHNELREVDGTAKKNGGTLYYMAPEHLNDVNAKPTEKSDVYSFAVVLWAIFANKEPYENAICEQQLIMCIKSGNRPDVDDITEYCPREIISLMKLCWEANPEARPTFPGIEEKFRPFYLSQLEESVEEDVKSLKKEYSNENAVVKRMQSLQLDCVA

SMILES | pIC50
CN1C(=O)[C@H](NC(=O)c2cc(Cc3ccccc3)[nH]n2)[C@@H]2C[C@@H]2c2cccnc21 [Example 80B, 5-benzyl-N-((1aR,2R,8bS)-4-methyl-3-oxo-1,1a,2,3,4,8b-hexahydrocyclopropa[d]pyrido[2,3-b]azepin-2-yl)-1H-pyrazole-3-carboxamide] | < 5.52
O=C(N[C@H]1C(=O)Nc2c(F)cc(F)cc2[C@H]2C[C@H]21)c1nnc(Cc2ccccc2)[nH]1 [Example 83B, 5-benzyl-N-((1aR,2R,8bS)-5,7-difluoro-3-oxo-1,1a,2,3,4,8b-hexahydrobenzo[b]cyclopropa[d]azepin-2-yl)-4H-1,2,4-triazole-3-carboxamide] | 5.00 to 6.00
CN1C(=O)[C@@H](NC(=O)c2nc3cccc(-c4ccccc4)c3s2)COc2ccccc21 [Example 84, (S)—N-(5-methyl-4-oxo-2,3,4,5-tetrahydrobenzo[b][1,4]oxazepin-3-yl)-7-phenylbenzo[d]thiazole-2-carboxamide] | 6.00 to 10.00
CN1C(=O)[C@@H](NC(=O)c2nnc(Cc3ccccc3)s2)COc2cccnc21 [Example 85, (S)-5-benzyl-N-(5-methyl-4-oxo-2,3,4,5-tetrahydropyrido[3,2-b][1,4]oxazepin-3-yl)-1,3,4-thiadiazole-2-carboxamide] | 6.00 to 10.00
CN1C(=O)[C@@H](NC(=O)c2ncc(Cc3ccccc3)s2)COc2cccnc21 [Example 86, (S)-5-benzyl-N-(5-methyl-4-oxo-2,3,4,5-tetrahydropyrido[3,2-b][1,4]oxazepin-3-yl)thiazole-2-carboxamide] | 6.00 to 10.00
CN1C(=O)[C@@H](NC(=O)c2cn(C3(c4ccccc4)CC3)nn2)COc2ccccc21 [Example 87, (S)—N-(5-methyl-4-oxo-2,3,4,5-tetrahydrobenzo[b][1,4]oxazepin-3-yl)-1-(1-phenylcyclopropyl)-1H-1,2,3-triazole-4-carboxamide] | 6.00 to 10.00
CN1C(=O)[C@@H](NC(=O)c2cnc(C3(c4ccccc4)CC3)[nH]2)COc2ccccc21 [Example 88, (S)—N-(5-methyl-4-oxo-2,3,4,5-tetrahydrobenzo[b][1,4]oxazepin-3-yl)-2-(1-phenylcyclopropyl)-1H-imidazole-5-carboxamide] | < 5.52
O=C(N[C@H]1C(=O)Nc2c(F)cc(F)cc2[C@H]2C[C@H]21)c1nnc(Cc2ccccc2)o1 [Example 89A, 5-benzyl-N-((1aR,2R,8bS)-5,7-difluoro-3-oxo-1,1a,2,3,4,8b-hexahydrobenzo[b]cyclopropa[d]azepin-2-yl)-1,3,4-oxadiazole-2-carboxamide] | 5.00 to 6.00
O=C(N[C@@H]1C(=O)Nc2c(F)cc(F)cc2[C@@H]2C[C@H]12)c1nnc(Cc2ccccc2)o1 [Example 89B, 5-benzyl-N-((1aS,2S,8bR)-5,7-difluoro-3-oxo-1,1a,2,3,4,8b-hexahydrobenzo[b]cyclopropa[d]azepin-2-yl)-1,3,4-oxadiazole-2-carboxamide] | 6.00 to 10.00
O=C(N[C@H]1C(=O)Nc2c(F)cc(F)cc2[C@H]2C[C@H]21)c1cn(Cc2ccccc2)nn1 [Example 90A, 1-benzyl-N-((1aR,2R,8bS)-5,7-difluoro-3-oxo-1,1a,2,3,4,8b-hexahydrobenzo[b]cyclopropa[d]azepin-2-yl)-1H-1,2,3-triazole-4-carboxamide] | 5.00 to 6.00
O=C(N[C@@H]1C(=O)Nc2c(F)cc(F)cc2[C@@H]2C[C@H]12)c1cn(Cc2ccccc2)nn1 [Example 90B, 1-benzyl-N-((1aS,2S,8bR)-5,7-difluoro-3-oxo-1,1a,2,3,4,8b-hexahydrobenzo[b]cyclopropa[d]azepin-2-yl)-1H-1,2,3-triazole-4-carboxamide] | 6.00 to 10.00
O=C(N[C@H]1COc2cccnc2NC1=O)c1cc(C2(c3ccccc3)CC2)[nH]n1 [Example 91, (S)—N-(4-oxo-2,3,4,5-tetrahydropyrido[3,2-b][1,4]oxazepin-3-yl)-5-(1-phenylcyclopropyl)-1H-pyrazole-3-carboxamide] | 6.00 to 10.00
[2H]C([2H])([2H])N1C(=O)[C@@H](NC(=O)c2cc(C3(n4nccn4)CC3)on2)CCc2cccnc21 [Example 207] | < 5.52
Cc1nc(C(=O)N[C@@H]2C(=O)N(C)c3nccnc3[C@@H]3C[C@H]23)cn1Cc1ccccc1 [Example 208] | 6.00 to 10.00
CN1C(=O)[C@@H](NC(=O)c2nn(Cc3cocn3)cc2F)COc2cccnc21 [Example 209, (S)-4-fluoro-N-(5-methyl-4-oxo-2,3,4,5-tetrahydropyrido[3,2-b][1,4]oxazepin-3-yl)-1-(oxazol-4-ylmethyl)-1H-pyrazole-3-carboxamide] | 6.00 to 10.00
CN1C(=O)[C@@H](NC(=O)c2ncc(Cc3ccccn3)s2)COc2cccnc21 [Example 213, (S)—N-(5-methyl-4-oxo-2,3,4,5-tetrahydropyrido[3,2-b][1,4]oxazepin-3-yl)-5-(pyridin-2-ylmethyl)thiazole-2-carboxamide] | 6.00 to 10.00
CN1C(=O)[C@@H](NC(=O)c2nn(Cc3ccc(F)cn3)cc2F)COc2ccccc21 [Example 214, (S)-4-fluoro-1-((5-fluoropyridin-2-yl)methyl)-N-(5-methyl-4-oxo-2,3,4,5-tetrahydrobenzo[b][1,4]oxazepin-3-yl)-1H-pyrazole-3-carboxamide] | 6.00 to 10.00
CN1C(=O)[C@@H](NC(=O)c2noc(Cc3ccccc3)n2)COc2cccnc21 [Example 215, (S)-5-benzyl-N-(5-methyl-4-oxo-2,3,4,5-tetrahydropyrido[3,2-b][1,4]oxazepin-3-yl)-1,2,4-oxadiazole-3-carboxamide] | 6.00 to 10.00
CN1C(=O)[C@@H](NC(=O)c2nn(Cc3ccc(Cl)cn3)cc2F)COc2ccccc21 [Example 216, (S)-1-((5-chloropyridin-2-yl)methyl)-4-fluoro-N-(5-methyl-4-oxo-2,3,4,5-tetrahydrobenzo[b][1,4]oxazepin-3-yl)-1H-pyrazole-3-carboxamide] | 6.00 to 10.00
C[C@H]1Oc2cccnc2N(C)C(=O)[C@H]1NC(=O)c1nnc(Cc2ccccc2)s1 [Example 217, 5-benzyl-N-((2R,3S)-2,5-dimethyl-4-oxo-2,3,4,5-tetrahydropyrido[3,2-b][1,4]oxazepin-3-yl)-1,3,4-thiadiazole-2-carboxamide] | 6.00 to 10.00

The next lines start with the values.

pIC50 | SMILES
6.00 to 10.00 | CN1C(=O)[C@@H](NC(=O)c2cc(Cc3ccccc3)on2)[C@H]2C[C@H]2c2cccnc21 [Example 81A, 5-benzyl-N-((1aS,2S,8bR)-4-methyl-3-oxo-1,1a,2,3,4,8b-hexahydrocyclopropa[d]pyrido[2,3-b]azepin-2-yl)isoxazole-3-carboxamide]
< 5.52 | CN1C(=O)[C@H](NC(=O)c2cc(Cc3ccccc3)on2)[C@@H]2C[C@@H]2c2cccnc21 [Example 81B, 5-benzyl-N-((1aR,2R,8bS)-4-methyl-3-oxo-1,1a,2,3,4,8b-hexahydrocyclopropa[d]pyrido[2,3-b]azepin-2-yl)isoxazole-3-carboxamide]
6.00 to 10.00 | CN1C(=O)[C@@H](NC(=O)c2nn(Cc3ccccc3)cc2F)[C@H]2C[C@H]2c2cccnc21 [Example 82A, 1-benzyl-4-fluoro-N-((1aS,2S,8bR)-4-methyl-3-oxo-1,1a,2,3,4,8b-hexahydrocyclopropa[d]pyrido[2,3-b]azepin-2-yl)-1H-pyrazole-3-carboxamide]
< 5.52 | CN1C(=O)[C@H](NC(=O)c2nn(Cc3ccccc3)cc2F)[C@@H]2C[C@@H]2c2cccnc21 [Example 82B, 1-benzyl-4-fluoro-N-((1aR,2R,8bS)-4-methyl-3-oxo-1,1a,2,3,4,8b-hexahydrocyclopropa[d]pyrido[2,3-b]azepin-2-yl)-1H-pyrazole-3-carboxamide]
